# Reference: ChEMBL document CHEMBL4219043, “Beyond the Rule of 5: Lessons Learned from AbbVie's Drugs and Compound Collection” (J Med Chem, 2018)
# Legend:
# [1] = Half life in dog at 3 mg/kg, po by LC-MS/MS analysis; assay type: ADME, organism-based, Canis lupus familiaris; details: in vivo
# Hepatitis C virus [2] = test: Antiviral activity against HCV genotype 1a H77 infected in human HuH7 replicon cells after 3 days in presence of 40% human plasma by luciferase reporter gene assay; assay type: functional, organism-based, Hepacivirus hominis; details: genotype 1a H77, Huh-7, 72 h
# [3] = Plasma clearance in dog at 1 mg/kg, iv by LC-MS/MS analysis; assay type: ADME, organism-based, Canis lupus familiaris
# Hepatitis C virus [4] = test: Resistance index, ratio of EC50 for HCV genotype 1a H77 harboring NS3 R155K mutant infected in human HuH7 replicon cells to EC50 for HCV genotype 1a H77 harboring wild type NS3 infected in human HuH7 replicon cells; assay type: functional, Hepacivirus hominis
# [5] = Apparent permeability of the compound by PAMPA; assay type: ADME
# Canis familiaris [6] = test: Dose normalized AUC in dog at 3 mg/kg, po after 24 hrs by LC-MS/MS analysis; assay type: ADME, organism-based, Canis lupus familiaris; details: in vivo
# Canis familiaris [7] = test: Fraction of drug absorbed into portal vein in dog at 3 mg/kg, po by LC-MS/MS analysis; assay type: ADME, organism-based, Canis lupus familiaris; details: in vivo
# Hepatitis C virus [8] = test: Antiviral activity against HCV genotype 1b Con1 infected in human HuH7 replicon cells after 3 days in presence of 40% human plasma by luciferase reporter gene assay; assay type: functional, organism-based, Hepacivirus hominis; details: isolate Con1, Huh-7, 72 h
# [9] = Oral bioavailability in rat by LC-MS/MS analysis; assay type: ADME, organism-based; details: in vivo
# Hepatitis C virus [10] = test: Antiviral activity against HCV genotype 1b Con1 infected in human HuH7 replicon cells after 3 days in absence of human plasma by luciferase reporter gene assay; assay type: functional, organism-based, Hepacivirus hominis; details: isolate Con1, Huh-7, 72 h
# Hepatitis C virus [11] = test: Antiviral activity against HCV genotype 1b Con1 harboring NS3 D168V mutant infected in human HuH7 replicon cells after 3 days by luciferase reporter gene assay; assay type: functional, organism-based, Hepacivirus hominis; details: isolate Con1, Huh-7, 72 h
# Hepatitis C virus [12] = test: Resistance index, ratio of EC50 for HCV genotype 1a H77 harboring NS3 D168V mutant infected in human HuH7 replicon cells to EC50 for HCV genotype 1a H77 harboring wild type NS3 infected in human HuH7 replicon cells; assay type: functional, Hepacivirus hominis
# Hepatitis C virus [13] = test: Resistance index, ratio of EC50 for HCV genotype 1b Con1 harboring NS3 D168V mutant infected in human HuH7 replicon cells to EC50 for HCV genotype 1b Con1 harboring wild type NS3 infected in human HuH7 replicon cells; assay type: functional, Hepacivirus hominis, isolate Con1
# Hepatitis C virus [14] = test: Ratio of EC50 in presence of 40% human plasma to EC50 in absence of human plasma for HCV genotype 1a H77 infected in human HuH7 replicon cells; assay type: functional, Hepacivirus hominis
# Hepatitis C virus [15] = test: Antiviral activity against HCV genotype 3a infected in human HuH7 replicon cells after 3 days in absence of human plasma by luciferase reporter gene assay; assay type: functional, organism-based, Hepacivirus hominis; details: Huh-7, 72 h
# [16] = Plasma clearance in iv dosed rat by LC-MS/MS analysis; assay type: ADME, organism-based
# Hepatitis C virus [17] = test: Resistance index, ratio of EC50 for HCV genotype 1b Con1 harboring NS3 R155K mutant infected in human HuH7 replicon cells to EC50 for HCV genotype 1b Con1 harboring wild type NS3 infected in human HuH7 replicon cells; assay type: functional, Hepacivirus hominis, isolate Con1
# Hepatitis C virus [18] = test: Antiviral activity against HCV genotype 1a H77 harboring NS3 R155K mutant infected in human HuH7 replicon cells after 3 days by luciferase reporter gene assay; assay type: functional, organism-based, Hepacivirus hominis; details: genotype 1a H77, Huh-7, 72 h
# [19] = Solubility in pH 7.2 buffer; assay type: physicochemical
# [20] = Half life in dog at 1 mg/kg, iv by LC-MS/MS analysis; assay type: ADME, organism-based, Canis lupus familiaris; details: in vivo
# [21] = Half life in po dosed rat by LC-MS/MS analysis; assay type: ADME, organism-based; details: in vivo
# Hepatitis C virus [22] = test: Antiviral activity against HCV genotype 1a H77 infected in human HuH7 replicon cells after 3 days in absence of human plasma by luciferase reporter gene assay; assay type: functional, organism-based, Hepacivirus hominis; details: genotype 1a H77, Huh-7, 72 h
# [23] = Half life in iv dosed rat by LC-MS/MS analysis; assay type: ADME, organism-based; details: in vivo
# Hepatitis C virus [24] = test: Antiviral activity against HCV genotype 1a H77 harboring NS3 D168V mutant infected in human HuH7 replicon cells after 3 days by luciferase reporter gene assay; assay type: functional, organism-based, Hepacivirus hominis; details: genotype 1a H77, Huh-7, 72 h
# [25] = Ratio of EC50 for HCV genotype 3a infected in human HuH7 replicon cells to EC50 for HCV genotype 1a H77 infected in human HuH7 replicon cells; assay type: functional
# Rattus norvegicus = test: Dose normalized AUC in po dosed rat after 24 hrs by LC-MS/MS analysis; assay type: ADME, organism-based; details: in vivo
# Hepatitis C virus [26] = test: Antiviral activity against HCV genotype 1b Con1 harboring NS3 R155K mutant infected in human HuH7 replicon cells after 3 days by luciferase reporter gene assay; assay type: functional, organism-based, Hepacivirus hominis; details: isolate Con1, Huh-7, 72 h
# [27] = (§1) Oral bioavailability in dog at 3 mg/kg by LC-MS/MS analysis; assay type: ADME, organism-based, Canis lupus familiaris; details: in vivo
# [28] = Apparent permeability of the compound in human Caco2 cells; assay type: ADME, cell-based; details: Caco-2
# Canis familiaris [29] = test: as §1; assay type: ADME, organism-based, Canis lupus familiaris; details: in vivo
# RS4-11 = test: Antiproliferative activity against human RS4:11 cells in presence of 10% human serum; assay type: functional, cell-based
# [30] = molecular target: Apoptosis regulator Bcl-2 (Homo sapiens, UniProt P10415); test: Inhibition of Bcl2 (unknown origin)
# Apoptosis regulator Bcl-2, sequence (P10415 whole entry): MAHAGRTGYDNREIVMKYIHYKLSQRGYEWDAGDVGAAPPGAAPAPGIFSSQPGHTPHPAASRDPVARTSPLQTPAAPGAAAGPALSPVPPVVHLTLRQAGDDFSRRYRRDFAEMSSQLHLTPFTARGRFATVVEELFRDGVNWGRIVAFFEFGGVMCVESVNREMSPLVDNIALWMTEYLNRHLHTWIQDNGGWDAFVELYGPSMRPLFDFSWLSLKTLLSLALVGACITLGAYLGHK
# MOLT-4 = test: Antiproliferative activity against human MOLT4 cells in presence of 10% human serum; assay type: functional, cell-based
# [31] = Oral bioavailability in dog; assay type: ADME, organism-based, Canis lupus familiaris; details: in vivo
SMILES,half-life [1],EC50 (Hepatitis C virus [2]),clearance [3],Ratio EC50 (Hepatitis C virus [4]),AUC/dose (Canis familiaris [6]),FaFg (Canis familiaris [7]),EC50 (Hepatitis C virus [8]),bioavailability [9],EC50 (Hepatitis C virus [10]),EC50 (Hepatitis C virus [11]),Ratio EC50 (Hepatitis C virus [12]),Ratio EC50 (Hepatitis C virus [13]),Ratio EC50 (Hepatitis C virus [14]),clearance [16],Ratio EC50 (Hepatitis C virus [17]),EC50 (Hepatitis C virus [18]),Solubility [19],half-life [20],EC50 (Hepatitis C virus [22]),EC50 (Hepatitis C virus [24]),other results
Cc1cc(C(=O)N[C@H]2CCCCC/C=C\[C@@H]3C[C@@]3(C(=O)NS(=O)(=O)C3CC3)NC(=O)[C@@H]3C[C@@H](Oc4nc5cc(F)ccc5nc4C(F)(F)F)CN3C2=O)no1,2.2 h,7 nM,0.667 mL/min/kg,3,18 µg·h/mL,0.8,7 nM,28%,0.5 nM,1.5 nM,149,5,6 - 35,38.3 mL/min/kg,1,0.3 nM,155 µM,3.5 h,0.8 nM,14 nM,Papp [5]: 5.1 ×10⁻⁶ cm/s; EC50 (Hepatitis C virus [15]): 64 to 83 nM; half-life [21]: 1.9 h; half-life [23]: 2.1 h; Ratio EC50 [25]: >80; AUC/dose (Rattus norvegicus): 0.14 µg·h/mL
Cn1ccc(C(=O)N[C@H]2CCCCC/C=C\[C@@H]3C[C@@]3(C(=O)NS(=O)(=O)C3(C)CC3)NC(=O)[C@@H]3C[C@@H](Oc4nc5cc(OC(F)(F)F)ccc5c5ccc(F)cc45)CN3C2=O)n1,4 h,7 nM,0.167 mL/min/kg,65,138 µg·h/mL,0.8,3 nM,43%,0.1 nM,–,97,2,>30,18.3 mL/min/kg,0.5,2 nM,0.65 µM,3.2 h,0.2 nM,3 nM,Papp [5]: 0.06 ×10⁻⁶ cm/s; EC50 (Hepatitis C virus [15]): 0.3 to 0.8 nM; EC50 (Hepatitis C virus [26]): 0.03 nM; half-life [21]: 4.6 h; bioavailability [27]: 81%; half-life [23]: 5 h; Ratio EC50 [25]: <=10; AUC/dose (Rattus norvegicus): 0.4 µg·h/mL
Cc1cc(C(=O)N[C@H]2CCCCC/C=C\[C@@H]3C[C@@]3(C(=O)NS(=O)(=O)C3CC3)NC(=O)[C@@H]3C[C@@H](Oc4nc5ccccc5nc4C(F)(F)F)CN3C2=O)no1,1.5 h,12 nM,5.67 mL/min/kg,4,6.76 µg·h/mL,1.5,10 nM,99.5%,0.4 nM,2 nM,290,6,6 - 35,3.5 mL/min/kg,2,0.4 nM,150 µM,1 h,0.5 nM,33 nM,Papp [28]: 5.4 ×10⁻⁶ cm/s; EC50 (Hepatitis C virus [26]): 0.7 nM; half-life [21]: 1.8 h; F (Canis familiaris [29]): 200%; half-life [23]: 1.2 h; AUC/dose (Rattus norvegicus): 4.75 µg·h/mL
Cc1cc(C(=O)N[C@H]2CCCCC/C=C\[C@@H]3C[C@@]3(C(=O)NS(=O)(=O)C3CC3)NC(=O)[C@@H]3C[C@@H](Oc4nc5cc(F)ccc5nc4C)CN3C2=O)no1,2 h,11 nM,1.17 mL/min/kg,7,18 µg·h/mL,–,7 nM,–,0.8 nM,3 nM,146,4,6 - 35,–,2,2 nM,> 500 µM,2 h,1.1 nM,41 nM,Papp [28]: 2.8 ×10⁻⁶ cm/s; EC50 (Hepatitis C virus [26]): 1.6 nM; bioavailability [27]: 123%
CO[C@H]1CC[C@H](CNc2ccc(S(=O)(=O)NC(=O)c3ccc(N4CCN(CC5=C(c6ccc(Cl)cc6)CC(C)(C)CC5)CC4)cc3Oc3cnc4[nH]ccc4c3)cc2[N+](=O)[O-])CC1 [A-1211212],–,–,–,–,–,–,–,–,–,–,–,–,–,–,–,–,–,–,–,–,EC50 (RS4-11): 6 nM; Ki [30]: < 0.01 nM; EC50 (MOLT-4): > 5000 nM
CC1(C)CCC(c2ccc(Cl)cc2)=C(CN2CCN(c3ccc(C(=O)NS(=O)(=O)c4ccc(N[C@H](CCN5CCOCC5)CSc5ccccc5)c(S(=O)(=O)C(F)(F)F)c4)cc3)CC2)C1 [NAVITOCLAX],–,–,–,–,–,–,–,–,–,–,–,–,–,–,–,–,–,–,–,–,bioavailability [31]: 48%; EC50 (RS4-11): 112 nM; EC50 (MOLT-4): 303 nM
CC1(C)CCC(CN2CCN(c3ccc(C(=O)NS(=O)(=O)c4ccc(NCC5CCOCC5)c([N+](=O)[O-])c4)c(Oc4cnc5[nH]ccc5c4)c3)CC2)=C(c2ccc(Cl)cc2)C1 [VENETOCLAX],–,–,–,–,–,–,–,–,–,–,–,–,–,–,–,–,–,–,–,–,EC50 (RS4-11): 8 nM; EC50 (MOLT-4): > 5000 nM
